# Measured values from patent publication US7695751B2 (priority 2004, dated 2010).
# Where “and” joins values, the source holds several entries; their conditions need not be identical. Identical values can stand only once.
# Tested on: Salmonella Typhimurium strain TA98
# Assay type: cell-based
substance,measurement,value
Aflatoxin B1 [AFB1 control],MR,13.75 and 12.35
same,Number of mutant colonies/plate,383 ± 65 colonies/plate
same,The number of mutant colonies/plate,385 ± 97 colonies/plate
